{"source": "patent US20190374627A1", "about": "“TARGET PEPTIDES FOR CANCER THERAPY AND DIAGNOSTICS” (priority 2016, published 2019)", "key": {"[1]": {"tested_on": "expanded lymphocyte cultures from deceased donor livers, cirrhotic livers and HCC", "assay": "ICS for MHC-I-pP reactivity of liver-derived lymphocyte cultures after phosphopeptide-specific expansion", "format": "cell-based, human"}, "[2]": {"tested_on": "unexpanded lymphocyte cultures (CD8^+ T cells)", "assay": "ICS for MHC-I-pP reactivity of lymphocyte cultures without expansion (Table 23, No Expansion)"}, "CD8^+ T cells (PBMCs) [3]": {"tested_on": "CD8^+ T cells (PBMCs)", "assay": "Ex vivo ICS of PBMCs after stimulation for 4 hours with the peptide", "format": "cell-based, human", "settings": "PBMCs of a patient with hereditary hemochromatosis, 4 hours stimulation"}, "CD8^+ T cells (PBMCs) [4]": {"tested_on": "CD8^+ T cells (PBMCs)", "assay": "Intracellular cytokine staining (ICS) of PBMCs after 7 days of stimulation with MHC-I-pP (healthy donors, HH patients)", "format": "cell-based, human", "how_it_was_run": "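PBMCs or liver lymphocytes from HLA-A*0201-positive healthy donors and hereditary hemochromatosis patients were stimulated for 7 days with HLA-A*0201-restricted phosphopeptides and no added cytokines. After exclusion of doublets and dead cells with a fixable viability dye, CD3^+CD8^+ cells were analysed by intracellular staining for IFN-γ and TNF-α, plus CD107a where needed.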"}, "[5]": {"tested_on": "expanded TIL / IHL cultures", "assay": "ICS for MHC-I-pP reactivity of liver-derived lymphocyte cultures after unspecific rapid expansion protocol (REP)", "format": "cell-based, human"}}, "note": "Entries after “also recorded” stand apart in the source; their conditions may differ. Square brackets hold non-standard residues; d marks the D form. Ends that are not written are not given here. pS = N[C@@H](COP(=O)(O)O)C(=O)O"}
{"substance": "RVAsPTSGV: IRS2 phosphopeptide, HLA-A*0201 (RVA[pS]PTSGV; listed as Homo sapiens)", "values": [{"measurement": "Reactive CD8^+ T cells, pP-specific Expansion, Do2", "setting": "[1]; pP-specific Expansion, Do2", "result": "0 (<0.25% reactive CD8^-+ T cells)"}, {"measurement": "Reactive CD8^+ T cells, pP-specific Expansion, Do4", "setting": "[1]; pP-specific Expansion, Do4", "result": "2 (2.5-5.0% reactive CD8^-+ T cells)"}, {"measurement": "Reactive CD8^+ T cells, pP-specific Expansion, HH6", "setting": "[1]; pP-specific Expansion, HH6", "result": "0 (<0.25% reactive CD8^-+ T cells)"}, {"measurement": "ppCTL response, Deceased Donor Liver Do 2", "setting": "[1]; pP-specifically expanded culture, Deceased Donor Liver Do 2", "result": "0 (<0.25% reactive CD8-+ T cells)"}, {"measurement": "ppCTL response, Deceased Donor Liver Do 3", "setting": "[1]; pP-specifically expanded culture, Deceased Donor Liver Do 3", "result": "0 (<0.25% reactive CD8-+ T cells)"}, {"measurement": "ppCTL response, Deceased Donor Liver Do 4", "setting": "[1]; pP-specifically expanded culture, Deceased Donor Liver Do 4", "result": "2 (2.5-5.0% reactive CD8-+ T cells)"}, {"measurement": "ppCTL response, Deceased Donor Liver Do 6", "setting": "[1]; pP-specifically expanded culture, Deceased Donor Liver Do 6", "result": "1 (0.25-2.5% reactive CD8-+ T cells)"}, {"measurement": "ppCTL response, End-stage Liver Cirrhosis IHL 11", "setting": "[1]; pP-specifically expanded culture, End-stage Liver Cirrhosis IHL 11", "result": "0 (<0.25% reactive CD8-+ T cells)"}, {"measurement": "ppCTL response, End-stage Liver Cirrhosis IHL 12", "setting": "[1]; pP-specifically expanded culture, End-stage Liver Cirrhosis IHL 12", "result": "0 (<0.25% reactive CD8-+ T cells)"}, {"measurement": "ppCTL response, End-stage Liver Cirrhosis IHL 13", "setting": "[1]; pP-specifically expanded culture, End-stage Liver Cirrhosis IHL 13", "result": "0 (<0.25% reactive CD8-+ T cells)"}, {"measurement": "ppCTL response, End-stage Liver Cirrhosis IHL 15", "setting": "[1]; pP-specifically expanded culture, End-stage Liver Cirrhosis IHL 15", "result": "0 (<0.25% reactive CD8-+ T cells)"}, {"measurement": "ppCTL response, HCC Distal HCC 1", "setting": "[1]; pP-specifically expanded culture, HCC 1 Distal", "result": "0 (<0.25% reactive CD8-+ T cells)"}, {"measurement": "ppCTL response, HCC Tumor HCC 1", "setting": "[1]; pP-specifically expanded culture, HCC 1 Tumor", "result": "0 (<0.25% reactive CD8-+ T cells)"}, {"measurement": "ppCTL response, HCC Distal HCC 4", "setting": "[1]; pP-specifically expanded culture, HCC 4 Distal", "result": "0 (<0.25% reactive CD8-+ T cells)"}, {"measurement": "ppCTL response, HCC Distal HCC 9", "setting": "[1]; pP-specifically expanded culture, HCC 9 Distal", "result": "0 (<0.25% reactive CD8-+ T cells)"}, {"measurement": "ppCTL response, HCC Tumor HCC 9", "setting": "[1]; pP-specifically expanded culture, HCC 9 Tumor", "result": "0 (<0.25% reactive CD8-+ T cells)"}, {"measurement": "ppCTL response, HCC Distal HCC 12", "setting": "[1]; pP-specifically expanded culture, HCC 12 Distal", "result": "0 (<0.25% reactive CD8-+ T cells)"}, {"measurement": "Reactive CD8^+ T cells, No Expansion, Do4", "setting": "[2]; Do4", "result": "3 (5-7.5% reactive CD8^-+ T cells)"}, {"measurement": "Reactive CD8^+ T cells, No Expansion, HH6", "setting": "[2]; HH6", "result": "0 (<0.25% reactive CD8^-+ T cells)"}, {"measurement": "ex vivo CD8^+ T cell response", "setting": "CD8^+ T cells (PBMCs) [3]", "result": "evident ex vivo; also recorded: ex vivo CD8^+ T cell response"}, {"measurement": "Reactive CD8^+ T cell population, HH2", "setting": "CD8^+ T cells (PBMCs) [4]; HH patient HH2", "result": "0 (<0.25% reactive CD8^-+ T cells)"}, {"measurement": "Reactive CD8^+ T cell population, HH3", "setting": "CD8^+ T cells (PBMCs) [4]; HH patient HH3", "result": "0 (<0.25% reactive CD8^-+ T cells)"}, {"measurement": "Reactive CD8^+ T cell population, HH6", "setting": "CD8^+ T cells (PBMCs) [4]; HH patient HH6", "result": "0 (<0.25% reactive CD8^-+ T cells)"}, {"measurement": "Reactive CD8^+ T cell population, HH8", "setting": "CD8^+ T cells (PBMCs) [4]; HH patient HH8", "result": "0 (<0.25% reactive CD8^-+ T cells)"}, {"measurement": "Reactive CD8^+ T cell population, HH10", "setting": "CD8^+ T cells (PBMCs) [4]; HH patient HH10", "result": "2 (2.5-5.0% reactive CD8^-+ T cells)"}, {"measurement": "Reactive CD8^+ T cell population, HH11", "setting": "CD8^+ T cells (PBMCs) [4]; HH patient HH11", "result": "0 (<0.25% reactive CD8^-+ T cells)"}, {"measurement": "Reactive CD8^+ T cell population, HD1", "setting": "CD8^+ T cells (PBMCs) [4]; Healthy donor HD1", "result": "0 (<0.25% reactive CD8^-+ T cells)"}, {"measurement": "Reactive CD8^+ T cell population, HD2", "setting": "CD8^+ T cells (PBMCs) [4]; Healthy donor HD2", "result": "0 (<0.25% reactive CD8^-+ T cells)"}, {"measurement": "Reactive CD8^+ T cell population, HD3", "setting": "CD8^+ T cells (PBMCs) [4]; Healthy donor HD3", "result": "0 (<0.25% reactive CD8^-+ T cells)"}, {"measurement": "Reactive CD8^+ T cell population, HD4", "setting": "CD8^+ T cells (PBMCs) [4]; Healthy donor HD4", "result": "0 (<0.25% reactive CD8^-+ T cells)"}, {"measurement": "Reactive CD8^+ T cell population, HD5", "setting": "CD8^+ T cells (PBMCs) [4]; Healthy donor HD5", "result": "0 (<0.25% reactive CD8^-+ T cells)"}, {"measurement": "Reactive CD8^+ T cells, Non-specific Expansion, Do2", "setting": "[5]; Do2", "result": "0 (<0.25% reactive CD8^-+ T cells)"}, {"measurement": "Reactive CD8^+ T cells, Non-specific Expansion, Do4", "setting": "[5]; Do4", "result": "0 (<0.25% reactive CD8^-+ T cells)"}, {"measurement": "Reactive CD8^+ T cells, Non-specific Expansion, HH6", "setting": "[5]; HH6", "result": "0 (<0.25% reactive CD8^-+ T cells)"}]}
